One compound from patent publication US9284283B2, “Macrocyclic compounds for modulating IL-17” (ENSEMBLE THERAPEUTICS CORPORATION, priority 2012, dated 2016) can be followed below.

“And” between values parts separate entries of the source, which are not always exact repeats. Identical values can stand only once.

Assay [1] deals with murine collagen-induced arthritis. Nature of the assay: Mouse collagen-induced arthritis (CIA) model. In kind it is in vivo. The conditions noted are these: for reduction of overall mean Clinical Arthritis Score: FIG. 11. The protocol:
Exemplary compounds of the invention were evaluated in a murine CIA model. […] mice (10/group) were anaesthetized with Isoflurane, shaved at the base of the tail, and injected intradermally with 150 μL of Freund's Complete Adjuvant (Sigma) containing bovine type II collagen (Elastin Products, Owensville, Mo.) (2 mg/mL) at the base of the tail on day 0 and again on day 21. On study days 24-25, onset of arthritis occurred and mice were randomized into treatment groups. Randomization into each group was done after swelling was obviously established in at least one paw (score of 1), and attempts were made to ensure approximately equal mean scores of 0.25 across the groups at the time of enrollment. Once a day oral treatment with 10 or 30 mg/kg of test compound in 20% Cremophor EL was initiated after enrollment and continued once a day as indicated through arthritis day 10. Mice were terminated on day 11. Clinical scores were calculated for each of the paws (right front, left front, right rear, and left rear) on arthritis days 1-11 and the results were summarized as a reduction in clinical arthritis score for all paws over the time period of dosing.

The test system of another assay is DNFB-treated BALB/c mice. Nature of the assay: Murine model of delayed hypersensitivity (DNFB-induced ear edema). In kind it is in vivo, mouse. Particulars: for Reduction in edema (%): ear weight 24 h after DNFB challenge. The protocol: We used a murine model of fluorodinitrobenzene (DNFB)-induced ear edema to test the anti-inflammatory activity of both orally dosed and intraperitoneally dosed exemplary compounds of the invention. BALB/c mice (Harlan Sprague-Dawley, Inc., male, 6-8 weeks old) were topically treated on their shaved abdomen with 30 μL of 0.5% 1-fluoro-2,4-dinitrobenzene (DNFB) (4:1 acetone:olive oil) once on Day 0 and once on Day 1.
For oral dosing (“PO”), exemplary compounds of the invention were either suspended at 3 mg/mL in 20% Cremophor EL (Sigma) (20:80; Cremophor:water) or dissolved at 1 mg/mL or 3 mg/mL in D-α-tocopherol polyethylene glycol 1000 succinate (TPGS; Sigma)/PEG-400/water (20:60:20). For intraperitoneal dosing (“IP”), exemplary compounds of the invention were dissolved in DMSO at a concentration of 5 mg/mL. On day 7, the test compound was administered (PO at either 10 mg/kg or 30 mg/kg; IP at 1, 3, or 10 mg/kg) to DNFB-treated mice. Commercially available anti-mouse IL-17A (BioLegend) administered intraperitoneally at 5 mg/kg in PBS was used as a positive control. Thirty minutes later, 20 μL of 0.2% DNFB was applied to the right ear of animals and vehicle ([…]:olive oil) was applied to the left ear. One and four hours after DNFB challenge, a subset of mice was exsanguinated and plasma prepared from the blood. Twenty-four hours after challenge, the remaining mice were euthanized, and their ears were removed and weighed to determine the amount of edema. Plasma was assayed for interleukin-6, TNF-α, CXCL1, and interferon-γ concentrations using commercially-available assays.

In the case of `O=C1CNC(=O)[C@@H](Cc2ccc(NC(=O)[C@H](Cc3ccccc3Cl)NC(=O)Cc3ccccc3)cc2)NC(=O)CC2(CCCC2)CC(=O)NCCCCCN1` [Compound 159], the “reduction of overall mean Clinical Arthritis Score” value came out at 6% in assay [1] (orally 10 mg/kg) and 11% in assay [1] (orally 30 mg/kg). Besides, in assay [1] (orally 10 and 30 mg/kg in 20% Cremophor EL, FIG. 10), the “reduction in mean Clinical Arthritis Score on days 27-30 as compared to vehicle controls” value was “superior reduction”. The “reduction in TNF-α, IFN-γ and edema as compared to a PBS control or DMSO control” value with DNFB-treated BALB/c mice (i.p. 10 mg/kg, FIG. 1) is given as “statistically significant reduction”. Also, the “reduction in IL-6, IFN-γ and edema compared to a DMSO control” value in the assay with DNFB-treated BALB/c mice (i.p. at 1 mg/kg, 3 mg/kg, or 10 mg/kg, FIG. 2) is “statistically significant reduction”. Moreover, the “Reduction in edema (%)” value was 17% in the assay with DNFB-treated BALB/c mice (ip, 1 mg/kg); 44% with DNFB-treated BALB/c mice (ip, 3 mg/kg); 54.1% and 54% with DNFB-treated BALB/c mice (ip, 10 mg/kg); 19.0% in the assay with DNFB-treated BALB/c mice (po, 10 mg/kg); 53.7% with DNFB-treated BALB/c mice (po, 30 mg/kg). The “IFNγ Reduction (%)” value in the assay with DNFB-treated BALB/c mice (ip, 1 mg/kg, plasma) was 54.2%; with DNFB-treated BALB/c mice (ip, 3 mg/kg, plasma) it was 85.5%; in the assay on DNFB-treated BALB/c mice (po, 10 mg/kg, plasma) it was 24.2%; in the assay with DNFB-treated BALB/c mice (po, 30 mg/kg, plasma), 64.5%. Moreover, the “IL6 Reduction (%)” value was found to be 62.6% with DNFB-treated BALB/c mice (ip, 1 mg/kg, plasma); 72.2% with DNFB-treated BALB/c mice (ip, 3 mg/kg, plasma); 78.6% with DNFB-treated BALB/c mice (ip, 10 mg/kg, plasma); 29.8% in the assay with DNFB-treated BALB/c mice (po, 10 mg/kg, plasma); 58.3% with DNFB-treated BALB/c mice (po, 30 mg/kg, plasma). Besides, in the assay on DNFB-treated BALB/c mice (ip, 10 mg/kg, plasma), the “TNFα Reduction (%)” value amounted to 21.7%. Also, the “IL-6, IFN-γ, and edema, dose-dependent” value with DNFB-treated BALB/c mice (orally dosed in TPGS/PEG400/Water vehicle, FIG. 5) is “effectively reduced”.
